{
  "source": "patent US20230391729A1",
  "about": "“SUCCINATE SALTS OF N-(3-(4-(3-(DIISOBUTYLAMINO)PROPYL)PIPERAZIN-1-YL)PROPYL)-1H-BENZO[D]IMIDAZOL-2-AMINE, PREPARATION THEREOF AND USE OF THE SAME” (ALZPROTECT, priority 2020, published 2023)",
  "system": "cortical neurons cultured with microglia",
  "assay": "Neuron survival and neurite network (MAP-2) in cortical neurons after Aβ1-42 injury",
  "format": "cell-based, rat",
  "conditions": "Aβ1-42 injury 72 h, co-administered; 10 nM to 100 nM",
  "procedure": "Rat cortical neurons cultured with microglia were cultured as described by Callizot et al. in J Neurosci Res. 2013, 91: 706-716 with modifications to include microglial cells. Pregnant female rats (Rats Wistar; Janvier Labs France) of 15 days of gestation were killed, after a deep anesthesia with CO2, by cervical dislocation. Then, fetuses were collected and immediately placed in ice-cold L15 Leibovitz medium with a 2% penicillin (10,000 U/ml) and streptomycin (10 mg/ml) solution (PS) and 1% bovine serum albumin (BSA). Cortexes were treated for 20 min at 37° C. with a trypsin-EDTA solution at a final concentration of 0.05% trypsin and 0.02% EDTA. The dissociation was stopped by addition of Dulbecco's modified Eagle's medium (DMEM) with 4.5 g/liter of glucose, containing DNAse I grade II (final concentration 0.5 mg/ml) and 10% fetal calf serum (FCS). Cells were mechanically dissociated by three forced passages through the tip of a 10-mL pipette. […] Viable cells were counted in a Neubauer cytometer, using the trypan blue exclusion test. […]\nCortical neurons were intoxicated with A3 solutions (see below) after 11 days of culture. […] This solution was gently agitated for 3 days at 37° C. in the dark and immediately used after being properly diluted in control medium to the concentrations used ([…] of Aβ1-42 preparation containing […] of Aβ oligomers (AβO) measured by WB). […]",
  "data": [
    {"substance": "N-(3-(4-(3-(diisobutylamino)propyl)piperazin-1-yl)propyl)-1H-benzo[d]imidazol-2-amine sesqui-succinate salt [sesqui-succinate salt Form 1]", "values": [
      {"measurement": "neurite network (MAP-2 staining)", "value": "significantly longer"},
      {"measurement": "neuron survival: total number of neurons (MAP-2 staining)", "value": "neuroprotective"}
    ]}
  ]
}
